Measured values as given in ChEMBL document CHEMBL4020791, “Synthesis and anti-proliferative activity of a small library of 7-substituted 5H-pyrrole [1,2-a][3,1]benzoxazin-5-one derivatives” (Bioorg Med Chem Lett, 2017).
Values belong to the compound of their own block, whether it stands above or below them. Active and inactive are the calls of the source. The calls are words filed in the database; no cut-off is given here.

Assays:
MCF-10A = assay: Cytotoxicity against human MCF10A after 72 hrs by MTT assay; format: cell-based
MCF7 [1] = assay: Cytotoxicity against human MCF7 cells assessed as reduction in cell viability after 72 hrs by MTT assay; format: functional, cell-based; conditions: MCF7, 72 h
MDA-MB-231 [2] = assay: cells; conditions: Homo sapiens, MDA-MB-231, 72 h
Description: Cytotoxicity against human MDA-MB-231 cells assessed as reduction in cell viability after 72 hrs by MTT assay

SK-BR-3 [3] = assay: Cytotoxicity against human SKBR3 cells assessed as reduction in cell viability after 72 hrs by MTT assay; format: functional, cell-based; conditions: SK-BR-3, 72 h
MDA-MB-231 [4] = assay: Antiproliferative activity against human MDA-MB-231 cells at 50 uM after 72 hrs by MTT assay; format: functional, cell-based
MCF7 [5] = assay: Antiproliferative activity against human MCF7 cells at 50 uM after 72 hrs by MTT assay; format: functional, cell-based
SK-BR-3 [6] = assay: Antiproliferative activity against human SKBR3 cells at 50 uM after 72 hrs by MTT assay; format: functional, cell-based
MCF7 [7] = assay: Cell cycle arrest in human MCF7 cells assessed as accumulation at G2/M phase at 5 uM after 24 hrs by propidium iodide-staining based FACS analysis (reference value: 6.3%); format: functional
MCF7 [8] = assay: Induction of apoptosis in human MCF7 cells assessed as increase in cleaved PARP-1 expression at 1 to 10 uM after 24 hrs by immunoblot method; format: functional, cell-based
MCF7 [9] = assay: Cell cycle arrest in human MCF7 cells assessed as accumulation at S phase at 5 uM after 24 hrs by propidium iodide-staining based FACS analysis (reference value: 22.6%); format: functional
MCF7 [10] = assay: Cell cycle arrest in human MCF7 cells assessed as accumulation at G0/G1 phase at 5 uM after 24 hrs by propidium iodide-staining based FACS analysis (reference value: 71.1%); format: functional
MCF7 [11] = assay: Increase in p21waf1/cip1 protein expression in human MCF7 cells at 1 to 10 uM after 24 hrs by immunoblot method; format: functional, cell-based
MCF7 [12] = assay: Change in cyclin D1 levels in human MCF7 cells at 1 to 10 uM after 24 hrs by Western blot analysis; format: functional, cell-based
MCF7 [13] = assay: Cell cycle arrest in human MCF7 cells assessed as accumulation at S phase after 24 hrs by propidium iodide-staining based FACS analysis; format: functional
MCF7 [14] = assay: Cell cycle arrest in human MCF7 cells assessed as accumulation at G2/M phase at 10 uM after 24 hrs by propidium iodide-staining based FACS analysis (reference value: 6.3%); format: functional
MCF7 [15] = assay: Cell cycle arrest in human MCF7 cells assessed as accumulation at G0/G1 phase at 10 uM after 24 hrs by propidium iodide-staining based FACS analysis (reference value: 71.1%); format: functional
MCF7 [16] = assay: Increase in p53 expression in human MCF7 cells at 1 to 10 uM after 24 hrs by immunoblot method; format: functional, cell-based
MCF7 [17] = assay: Cell cycle arrest in human MCF7 cells assessed as accumulation at S phase at 10 uM after 24 hrs by propidium iodide-staining based FACS analysis (reference value: 22.6%); format: functional

SMILES: O=c1oc2cccn2c2ccc(-c3ccccc3)cc12
- IC50 (MCF-10A): 180 µM
- IC50 (MCF7 [1]): 66.5 µM
- IC50 (MDA-MB-231 [2]): 93.5 µM
- IC50 (SK-BR-3 [3]): 61 µM

SMILES: O=c1oc2cccn2c2ncccc12
- Activity (MDA-MB-231 [4]): Active
- Activity (MCF7 [5]): Active
- Activity (SK-BR-3 [6]): Active

SMILES: O=c1oc2cccn2c2cc3ccccc3cc12
- Activity (MDA-MB-231 [4]): Active
- Activity (MCF7 [5]): Active
- Activity (SK-BR-3 [6]): Active

SMILES: O=c1oc2cccn2c2ccc(-c3ccc(C(F)(F)F)nc3)cc12
- IC50 (MCF-10A): 155 µM
- IC50 (MCF7 [1]): 43.1 µM
- IC50 (MDA-MB-231 [2]): 73 µM
- IC50 (SK-BR-3 [3]): 46.8 µM

SMILES: O=c1oc2cccn2c2ccccc12
- Activity (MDA-MB-231 [4]): Active
- Activity (MCF7 [5]): Active
- Activity (SK-BR-3 [6]): Active

Further lines, with some results ahead:

- IC50 (MDA-MB-231 [2]): 78.9 µM
SMILES: O=c1oc2cccn2c2ccc(-c3cccnc3O)cc12
- IC50 (MCF-10A): 154 µM
- IC50 (MCF7 [1]): 60.9 µM
- IC50 (SK-BR-3 [3]): 72 µM

- IC50 (MDA-MB-231 [2]): 217 µM
SMILES: O=c1oc2cccn2c2ccc(Br)cc12
- IC50 (MCF-10A): 262 µM
- IC50 (MCF7 [1]): 123 µM
- Activity (MDA-MB-231 [4]): Active
- Activity (MCF7 [5]): Active
- IC50 (SK-BR-3 [3]): 126 µM
- Activity (SK-BR-3 [6]): Active

- IC50 (MDA-MB-231 [2]): 10 µM
SMILES: O=c1oc2cccn2c2ccc(-c3ccc(-c4ccccc4)cc3)cc12
- IC50 (MCF-10A): > 250 µM
- Activity (MCF7 [7]): 7.8%
- IC50 (MCF7 [1]): 9.03 µM
- Activity (MCF7 [8]): Active
- Activity (MCF7 [9]): 15.6%
- Activity (MCF7 [10]): 76.6%
- Activity (MCF7 [11]): Active
- Activity (MCF7 [12]): Active
- Activity (MCF7 [13]): Dose-dependent effect
- Activity (MCF7 [14]): 8.4%
- Activity (MCF7 [15]): 72.8%
- IC50 (SK-BR-3 [3]): 9.2 µM
- Activity (MCF7 [16]): Active
- Activity (MCF7 [17]): 18.8%

- IC50 (MDA-MB-231 [2]): 10 µM
SMILES: COc1cccc2c1C(=O)c1c(O)c3c(c(O)c1C2=O)C[C@@](O)(C(=O)CO)C[C@@H]3O[C@H]1C[C@H](N)[C@H](O)[C@H](C)O1 [DOXORUBICIN]
- IC50 (MCF-10A): 12.5 µM
- IC50 (SK-BR-3 [3]): 8.48 µM

- IC50 (MDA-MB-231 [2]): 31 µM
SMILES: O=c1oc2cccn2c2ccc(-c3ccc(O)cc3)cc12
- IC50 (MCF-10A): 79.8 µM
- IC50 (MCF7 [1]): 18.5 µM
- IC50 (SK-BR-3 [3]): 27 µM

- IC50 (MDA-MB-231 [2]): 65 µM
SMILES: COC(=O)c1ccc(-c2ccc3c(c2)c(=O)oc2cccn23)cc1
- IC50 (MCF-10A): 162 µM
- IC50 (MCF7 [1]): 48.7 µM
- IC50 (SK-BR-3 [3]): 59.3 µM
